Data: ChEMBL document CHEMBL1156872, “Synthesis and discovery of 2,3-dihydro-3,8-diphenylbenzo[1,4]oxazines as a novel class of potent cholesteryl ester transfer protein inhibitors” (Bioorg Med Chem Lett, 2010)
In brackets after ≈: the same amount, converted by molar mass. Each block holds one compound with its values, some of them ahead of it.

Legend:
[1] = molecular target: T1, Cholesteryl ester transfer protein (Homo sapiens) (UniProt P11597); experiment: Inhibition of human cholesteryl ester transfer protein at 1 uM by scintillation proximity assay
T1 sequence (whole entry): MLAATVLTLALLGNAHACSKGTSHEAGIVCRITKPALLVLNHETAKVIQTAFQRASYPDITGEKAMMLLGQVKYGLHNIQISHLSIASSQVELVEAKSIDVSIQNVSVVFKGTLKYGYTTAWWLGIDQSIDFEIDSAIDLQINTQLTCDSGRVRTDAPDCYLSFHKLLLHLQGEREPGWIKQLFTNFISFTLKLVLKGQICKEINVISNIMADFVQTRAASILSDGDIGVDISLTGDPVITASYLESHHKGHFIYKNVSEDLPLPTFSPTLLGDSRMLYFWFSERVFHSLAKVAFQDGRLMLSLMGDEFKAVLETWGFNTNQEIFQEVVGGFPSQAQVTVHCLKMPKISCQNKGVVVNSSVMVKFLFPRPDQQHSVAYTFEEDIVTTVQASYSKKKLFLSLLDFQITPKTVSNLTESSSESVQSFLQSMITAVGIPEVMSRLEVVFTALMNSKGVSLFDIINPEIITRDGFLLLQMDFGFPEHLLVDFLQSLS

[2] = molecular target: T2, Cholesteryl ester transfer protein (Homo sapiens, UniProt P11597); experiment: Inhibition of human cholesteryl ester transfer protein by scintillation proximity assay
T2 sequence (P11597 whole entry): T1 sequence (whole entry)

[3] = Half life in human liver microsomes; assay type: ADME, Microsome
Cytochrome P450 2D6 = Cytochrome P450 2D6 (Homo sapiens, UniProt P10635); experiment: Inhibition of CYP2D6 in human liver microsomes; assay type: ADME, Microsome
[4] = molecular target: T2, Cholesteryl ester transfer protein; experiment: Inhibition of cholesteryl ester transfer protein in human plasma by [3H]CE HDL assay; assay type: cell-free
Cytochrome P450 1A2 = molecular target: T3, Cytochrome P450 1A2 (Homo sapiens, UniProt P05177); experiment: Inhibition of CYP1A2 in human liver microsomes; assay type: ADME, Microsome
T3 sequence (P05177 whole entry): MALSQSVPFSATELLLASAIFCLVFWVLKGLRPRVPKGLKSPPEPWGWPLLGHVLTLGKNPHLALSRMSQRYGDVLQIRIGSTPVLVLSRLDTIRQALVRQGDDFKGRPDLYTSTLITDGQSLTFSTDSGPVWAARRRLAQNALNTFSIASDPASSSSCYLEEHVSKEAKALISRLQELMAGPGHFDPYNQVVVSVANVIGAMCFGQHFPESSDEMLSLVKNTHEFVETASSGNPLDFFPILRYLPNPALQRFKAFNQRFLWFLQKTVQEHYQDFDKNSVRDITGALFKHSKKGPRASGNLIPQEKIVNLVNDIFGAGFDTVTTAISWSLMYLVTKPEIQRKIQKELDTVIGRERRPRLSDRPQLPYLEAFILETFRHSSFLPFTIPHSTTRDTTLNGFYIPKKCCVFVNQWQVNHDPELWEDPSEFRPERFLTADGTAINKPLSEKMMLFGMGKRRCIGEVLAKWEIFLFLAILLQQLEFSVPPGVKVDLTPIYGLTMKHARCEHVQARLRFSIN

Cytochrome P450 2C9 = Cytochrome P450 2C9 (Homo sapiens, UniProt P11712); experiment: Inhibition of CYP2C9 in human liver microsomes; assay type: ADME, Microsome
Cytochrome P450 2C19 = Cytochrome P450 2C19 (Homo sapiens, UniProt P33261); experiment: Inhibition of CYP2C19 in human liver microsomes; assay type: ADME, Microsome
Cytochrome P450 3A4 [5] = molecular target: T4, Cytochrome P450 3A4 (Homo sapiens, UniProt P08684); experiment: Inhibition of CYP3A4 […] isoform in human liver microsomes; assay type: ADME, Microsome
Cytochrome P450 3A4 [6] = molecular target: T4, Cytochrome P450 3A4; experiment: Inhibition of CYP3A4 tissue isoform in human liver microsomes; assay type: ADME, Microsome
[7] = Oral bioavailability in rat at 10 mg/kg; assay type: ADME, organism-based; conditions: in vivo
[8] = AUC in rat at 10 mg/kg, po and 2 mg/kg, iv; assay type: ADME, organism-based; conditions: plasma
[9] = Tmax in rat at 10 mg/kg, po and 2 mg/kg, iv; assay type: ADME, organism-based; conditions: in vivo
[10] = Clearance in rat at 10 mg/kg, po and 2 mg/kg, iv; assay type: ADME, organism-based; conditions: in vivo
[11] = Volume of distribution at steady state in rat at 10 mg/kg, po and 2 mg/kg, iv; assay type: ADME, organism-based; conditions: in vivo, read-out: Vdss
Mus musculus [12] = experiment: Increase in HDL cholesterol level in normal chow diet fed female CETP transgenic mouse at 3 mg/kg, po after 5 days; assay type: functional
Mus musculus [13] = experiment: Increase in HDL cholesterol level in normal chow diet fed female CETP transgenic mouse at 10 mg/kg, po after 5 days; assay type: functional
Mus musculus [14] = experiment: Increase in HDL cholesterol level in normal chow diet fed female CETP transgenic mouse at 30 mg/kg, po after 5 days; assay type: functional
Mus musculus [15] = experiment: Increase in HDL cholesterol level in normal chow diet fed male CETP transgenic mouse at 3 mg/kg, po after 5 days; assay type: functional
Mus musculus [16] = experiment: Increase in HDL cholesterol level in normal chow diet fed male CETP transgenic mouse at 10 mg/kg, po after 5 days; assay type: functional
Mus musculus [17] = experiment: Increase in HDL cholesterol level in normal chow diet fed male CETP transgenic mouse at 30 mg/kg, po after 5 days; assay type: functional
Hamster [18] = experiment: Increase in HDL cholesterol level in high fat diet fed hamster at 10 mg/kg, po after 5 days; assay type: functional, Cricetinae
Hamster [19] = experiment: Increase in HDL cholesterol level in high fat diet fed hamster at 30 mg/kg, po after 5 days; assay type: functional, Cricetinae
[20] = Aqueous solubility at pH 2.0; assay type: physicochemical; conditions: aqueous medium
[21] = Aqueous solubility at pH 7.4; assay type: physicochemical; conditions: aqueous medium

T4 sequence (P08684 whole entry, canonical isoform): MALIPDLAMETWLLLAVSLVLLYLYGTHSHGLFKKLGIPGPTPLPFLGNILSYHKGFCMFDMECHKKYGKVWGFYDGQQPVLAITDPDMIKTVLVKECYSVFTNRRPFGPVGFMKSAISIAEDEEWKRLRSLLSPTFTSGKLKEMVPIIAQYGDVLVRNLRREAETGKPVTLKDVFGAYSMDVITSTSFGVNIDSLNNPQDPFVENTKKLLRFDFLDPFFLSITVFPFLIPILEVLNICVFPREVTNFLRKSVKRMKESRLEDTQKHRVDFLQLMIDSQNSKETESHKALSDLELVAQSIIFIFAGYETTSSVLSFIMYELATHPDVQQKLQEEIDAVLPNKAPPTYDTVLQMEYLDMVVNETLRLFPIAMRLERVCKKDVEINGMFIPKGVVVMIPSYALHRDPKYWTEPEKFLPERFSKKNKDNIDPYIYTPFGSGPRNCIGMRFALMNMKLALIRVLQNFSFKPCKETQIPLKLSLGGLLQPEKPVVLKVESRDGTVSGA
Sequence of Cytochrome P450 2C19 (P33261 whole entry, canonical isoform): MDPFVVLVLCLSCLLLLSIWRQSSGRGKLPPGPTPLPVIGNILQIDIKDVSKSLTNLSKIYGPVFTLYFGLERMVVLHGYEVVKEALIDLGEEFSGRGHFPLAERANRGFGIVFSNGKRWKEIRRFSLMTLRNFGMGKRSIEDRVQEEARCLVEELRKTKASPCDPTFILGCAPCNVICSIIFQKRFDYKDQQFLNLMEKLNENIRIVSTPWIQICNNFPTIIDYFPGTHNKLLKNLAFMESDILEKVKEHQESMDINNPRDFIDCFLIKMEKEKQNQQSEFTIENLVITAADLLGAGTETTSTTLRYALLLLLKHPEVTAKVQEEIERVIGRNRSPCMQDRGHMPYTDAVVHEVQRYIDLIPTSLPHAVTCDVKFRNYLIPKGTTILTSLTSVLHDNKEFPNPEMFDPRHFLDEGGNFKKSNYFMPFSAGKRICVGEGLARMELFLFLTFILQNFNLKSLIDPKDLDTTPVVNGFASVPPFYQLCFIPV
Sequence of Cytochrome P450 2D6 (P10635 whole entry): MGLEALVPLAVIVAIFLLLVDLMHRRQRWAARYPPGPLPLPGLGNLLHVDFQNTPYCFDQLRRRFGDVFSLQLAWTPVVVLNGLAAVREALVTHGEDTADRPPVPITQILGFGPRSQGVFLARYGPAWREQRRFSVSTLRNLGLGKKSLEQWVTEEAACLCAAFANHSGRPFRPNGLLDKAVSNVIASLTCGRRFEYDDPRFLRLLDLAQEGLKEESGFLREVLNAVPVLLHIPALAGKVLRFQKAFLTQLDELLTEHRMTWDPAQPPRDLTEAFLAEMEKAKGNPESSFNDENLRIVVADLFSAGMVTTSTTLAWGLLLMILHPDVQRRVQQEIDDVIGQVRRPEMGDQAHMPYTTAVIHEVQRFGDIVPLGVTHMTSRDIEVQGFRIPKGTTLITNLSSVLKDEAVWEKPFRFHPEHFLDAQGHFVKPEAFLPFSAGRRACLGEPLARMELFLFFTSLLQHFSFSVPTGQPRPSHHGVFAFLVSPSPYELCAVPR
Sequence of Cytochrome P450 2C9 (P11712 whole entry): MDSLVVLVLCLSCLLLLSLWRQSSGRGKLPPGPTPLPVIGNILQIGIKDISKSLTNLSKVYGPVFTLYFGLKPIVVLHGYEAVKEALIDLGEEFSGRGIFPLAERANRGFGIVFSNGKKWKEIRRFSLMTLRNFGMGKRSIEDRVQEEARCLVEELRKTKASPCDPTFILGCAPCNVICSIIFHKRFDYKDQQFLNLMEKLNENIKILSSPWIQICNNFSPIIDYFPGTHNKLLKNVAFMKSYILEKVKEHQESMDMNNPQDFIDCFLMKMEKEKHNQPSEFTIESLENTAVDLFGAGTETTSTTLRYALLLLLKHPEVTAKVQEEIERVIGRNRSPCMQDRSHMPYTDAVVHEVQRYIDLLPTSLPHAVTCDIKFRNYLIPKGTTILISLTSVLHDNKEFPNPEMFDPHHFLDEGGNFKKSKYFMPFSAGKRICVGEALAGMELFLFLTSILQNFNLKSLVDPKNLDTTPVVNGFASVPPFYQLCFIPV

inhibition [1]: 38%
SMILES: OC(CN1c2cccc(-c3cccc(OC(F)(F)F)c3)c2OCC1c1ccc(OC(F)(F)F)cc1)C(F)(F)F (mixture of isomers)

IC50 [2]: 133 nM
inhibition [1]: 69%
SMILES: O[C@@H](CN1c2cccc(-c3cccc(OC(F)(F)F)c3)c2OC[C@@H]1c1cccc(OC(F)(F)F)c1)C(F)(F)F

inhibition [1]: 43%
SMILES: OC(CN1c2cccc(-c3cccc(OC(F)(F)F)c3)c2OCC1c1ccccc1)C(F)(F)F (mixture of isomers)

inhibition [1]: 26%
SMILES: O[C@H](CN1c2cccc(-c3cccc(OC(F)(F)F)c3)c2OC[C@H]1c1cccc(OC(F)(F)C(F)F)c1)C(F)(F)F

inhibition [1]: 37%
SMILES: OC(CN1c2cccc(-c3cccc(OC(F)(F)F)c3)c2OCC1c1cccc(C(F)(F)F)c1)C(F)(F)F (mixture of isomers)

inhibition [1]: 91%
half-life [3]: 1.03 h
IC50 (Cytochrome P450 2D6): > 100000 nM
IC50 [4]: 1000 nM
IC50 (Cytochrome P450 1A2): > 100000 nM
IC50 (Cytochrome P450 2C9): > 100000 nM
IC50 (Cytochrome P450 2C19): > 100000 nM
IC50 (Cytochrome P450 3A4 [5]): > 100000 nM
IC50 (Cytochrome P450 3A4 [6]): > 100000 nM
bioavailability [7]: 53%
AUC [8]: 19800 ng·h/mL
Tmax [9]: 11.5 h
clearance [10]: 4.6 mL/min/kg
Vd [11]: 0.73 L/kg
solubility [20]: 11 µg/mL (≈ 18.4 µM)
solubility [21]: 2.7 µg/mL (≈ 4.5 µM)
SMILES: O[C@@H](CN1c2cccc(-c3cccc(OC(F)(F)F)c3)c2OC[C@@H]1c1cccc(OC(F)(F)C(F)F)c1)C(F)(F)F
Activity (Mus musculus [12]): 4%
Activity (Mus musculus [13]): 8%
Activity (Mus musculus [14]): 24%
Activity (Mus musculus [15]): 11%
Activity (Mus musculus [16]): 10%
Activity (Mus musculus [17]): 28%
Activity (Hamster [18]): 9%
Activity (Hamster [19]): 16%

inhibition [1]: 14%
SMILES: O[C@@H](CN1c2cccc(-c3cccc(OC(F)(F)F)c3)c2OC[C@H]1c1cccc(OC(F)(F)C(F)F)c1)C(F)(F)F

inhibition [1]: 62%
SMILES: OC(CN1c2cccc(-c3cccc(OC(F)(F)F)c3)c2OCC1c1cccc(Cl)c1)C(F)(F)F (mixture of isomers)

More lines, now with the values behind:

SMILES: O[C@@H](CN1c2cccc(-c3cc(F)cc(F)c3)c2OC[C@@H]1c1cccc(OC(F)(F)F)c1)C(F)(F)F
inhibition [1]: 100%

SMILES: OC[C@@H](O)CN1c2cccc(-c3cccc(OC(F)(F)F)c3)c2OC[C@@H]1c1cccc(OC(F)(F)C(F)F)c1
inhibition [1]: 27%

SMILES: CC(C)C(O)CN1c2cccc(-c3cccc(OC(F)(F)F)c3)c2OCC1c1cccc(OC(F)(F)C(F)F)c1 (mixture of isomers)
IC50 [2]: 129 nM
inhibition [1]: 86%

SMILES: CCCN1c2cccc(-c3cccc(OC(F)(F)F)c3)c2OCC1c1cccc(OC(F)(F)C(F)F)c1 (racemic)
inhibition [1]: 39%

SMILES: CC1(C)OC[C@@H](CN2c3cccc(-c4cccc(OC(F)(F)F)c4)c3OC[C@@H]2c2cccc(OC(F)(F)C(F)F)c2)O1 (mixture of isomers)
inhibition [1]: 25%

SMILES: OC(CN1c2cccc(-c3cccc(OC(F)(F)F)c3)c2OCC1c1ccc2c(c1)OC(F)(F)O2)C(F)(F)F (mixture of isomers)
IC50 [2]: 271 nM
inhibition [1]: 48%

SMILES: COC(=O)N1c2cccc(-c3cccc(OC(F)(F)F)c3)c2OCC1c1cccc(OC(F)(F)C(F)F)c1 (racemic)
inhibition [1]: 16%

SMILES: OCCN1c2cccc(-c3cccc(OC(F)(F)F)c3)c2OCC1c1cccc(OC(F)(F)C(F)F)c1 (racemic)
inhibition [1]: 29%

SMILES: O[C@@H](CN1c2cccc(-c3cc(F)c(F)c(F)c3)c2OC[C@@H]1c1cccc(OC(F)(F)C(F)F)c1)C(F)(F)F
inhibition [1]: 101%

SMILES: O[C@@H](CN1c2cccc(-c3cc(F)c(F)c(F)c3)c2OC[C@@H]1c1cccc(OC(F)(F)F)c1)C(F)(F)F
inhibition [1]: 94%

SMILES: CC(C)(O)CN1c2cccc(-c3cccc(OC(F)(F)F)c3)c2OCC1c1cccc(OC(F)(F)C(F)F)c1 (racemic)
inhibition [1]: 29%

SMILES: FC(F)C(F)(F)Oc1cccc(C2COc3c(-c4cccc(OC(F)(F)F)c4)cccc3N2CCN2CCOCC2)c1 (racemic)
inhibition [1]: 0%

SMILES: NCCN1c2cccc(-c3cccc(OC(F)(F)F)c3)c2OCC1c1cccc(OC(F)(F)C(F)F)c1 (racemic)
inhibition [1]: 2%
